From ChEMBL document CHEMBL6083263, “The Discovery of MORF-627, a Highly Selective Conformationally-Biased Zwitterionic Integrin αvβ6 Inhibitor for Fibrosis” (J Med Chem, 2024)

What was measured:
Integrin alpha-V/beta-1 = Integrin alpha-V/beta-1 (Homo sapiens, UniProt P05556+P06756); assay: Displacement of fluorescein labeled ACRGDGWC from human Integrin alphaVbeta1 preincubated for 15 mins followed by fluorescein labeled ACRGDGWC addition and measured after 1 hr by fluorescence polarization assay; format: protein-complex assay
Integrin alpha-V/beta-6 [1] = molecular target: T1, Integrin alpha-V/beta-6 (Homo sapiens, UniProt P06756+P18564); assay: Displacement of fluorescein labeled GRGDLGRL from human Integrin alphaVbeta6 preincubated for 15 mins followed by fluorescein labeled GRGDLGRL addition and measured after 1 hr by fluorescence polarization assay; format: protein-complex assay
[2] = Octanol/water partition coefficient, logD of the compound; format: physicochemical
Integrin alpha-V/beta-6 [3] = molecular target: T1, Integrin alpha-V/beta-6; assay: Binding affinity to human Integrin alphaVbeta6 overexpressed in HEK293 cells incubated for 15 mins in presence of human serum by flow cytometry assay; format: cell-based
Integrin alpha-V/beta-8 = Integrin alpha-V/beta-8 (Homo sapiens, UniProt P06756+P26012); assay: Displacement of fluorescein labeled GRGDLGRL from human Integrin alphaVbeta8 preincubated for 15 mins followed by fluorescein labeled GRGDLGRL addition and measured after 1 hr by fluorescence polarization assay; format: protein-complex assay
Homo sapiens [4] = organism: Homo sapiens; assay: Selectivity ratio of IC50 for displacement of fluorescein labeled ACRGDGWC from human Integrin alphaVbeta1 to IC50 for displacement of fluorescein labeled GRGDLGRL from human Integrin alphaVbeta6
Homo sapiens [5] = organism: Homo sapiens; assay: Selectivity ratio of IC50 for displacement of fluorescein labeled GRGDLGRL from human Integrin alphaVbeta8 to IC50 for displacement of fluorescein labeled GRGDLGRL from human Integrin alphaVbeta6
[6] = Volume of distribution at steady state in Sprague-Dawley rat at 1 mg/kg, iv measured upto 24 hrs by LC/MS-MS analysis; format: ADME, organism-based; settings: in vivo, read-out: Vdss
[7] = Half-life in Sprague-Dawley rat at 1 mg/kg, iv measured upto 24 hrs by LC/MS-MS analysis; format: ADME, organism-based; settings: in vivo
[8] = Oral bioavailability in Sprague-Dawley rat at 10 mg/kg measured upto 24 hrs by LC/MS-MS analysis; format: ADME, organism-based; settings: in vivo
[9] = Clearance in Sprague-Dawley rat at 1 mg/kg, iv measured upto 24 hrs by LC/MS-MS analysis; format: ADME, organism-based; settings: in vivo

Sequence of Integrin alpha-V/beta-8 (P06756 31-889 limits assumed): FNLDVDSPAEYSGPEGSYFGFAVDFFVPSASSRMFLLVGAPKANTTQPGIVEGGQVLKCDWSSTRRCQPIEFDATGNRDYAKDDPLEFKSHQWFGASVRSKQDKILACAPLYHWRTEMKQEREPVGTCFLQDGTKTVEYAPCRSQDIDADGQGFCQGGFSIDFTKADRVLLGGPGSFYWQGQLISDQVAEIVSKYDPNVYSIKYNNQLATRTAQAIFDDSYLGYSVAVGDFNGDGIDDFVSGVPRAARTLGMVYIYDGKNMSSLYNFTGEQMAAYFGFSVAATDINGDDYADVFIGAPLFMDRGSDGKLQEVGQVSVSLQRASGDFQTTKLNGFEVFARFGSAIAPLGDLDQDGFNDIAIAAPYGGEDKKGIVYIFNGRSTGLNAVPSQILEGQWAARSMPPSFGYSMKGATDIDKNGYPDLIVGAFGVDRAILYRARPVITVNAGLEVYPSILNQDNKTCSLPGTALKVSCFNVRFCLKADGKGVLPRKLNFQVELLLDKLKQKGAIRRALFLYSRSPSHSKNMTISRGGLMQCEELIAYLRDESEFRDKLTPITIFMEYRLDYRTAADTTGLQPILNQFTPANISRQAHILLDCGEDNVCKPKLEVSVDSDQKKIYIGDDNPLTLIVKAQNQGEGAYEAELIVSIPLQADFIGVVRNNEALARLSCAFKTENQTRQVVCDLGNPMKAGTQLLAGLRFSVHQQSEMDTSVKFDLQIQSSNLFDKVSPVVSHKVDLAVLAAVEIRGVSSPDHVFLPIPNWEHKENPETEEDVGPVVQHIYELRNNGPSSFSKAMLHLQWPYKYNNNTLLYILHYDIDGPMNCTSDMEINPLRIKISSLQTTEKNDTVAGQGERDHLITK
Sequence of Integrin alpha-V/beta-8 (P06756 891-1048 limits assumed): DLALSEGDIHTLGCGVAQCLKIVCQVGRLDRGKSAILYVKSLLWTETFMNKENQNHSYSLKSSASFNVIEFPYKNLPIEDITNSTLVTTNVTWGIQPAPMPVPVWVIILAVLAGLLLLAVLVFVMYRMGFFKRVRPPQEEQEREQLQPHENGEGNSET
Sequence of Integrin alpha-V/beta-8 (P26012 43-769 limits assumed): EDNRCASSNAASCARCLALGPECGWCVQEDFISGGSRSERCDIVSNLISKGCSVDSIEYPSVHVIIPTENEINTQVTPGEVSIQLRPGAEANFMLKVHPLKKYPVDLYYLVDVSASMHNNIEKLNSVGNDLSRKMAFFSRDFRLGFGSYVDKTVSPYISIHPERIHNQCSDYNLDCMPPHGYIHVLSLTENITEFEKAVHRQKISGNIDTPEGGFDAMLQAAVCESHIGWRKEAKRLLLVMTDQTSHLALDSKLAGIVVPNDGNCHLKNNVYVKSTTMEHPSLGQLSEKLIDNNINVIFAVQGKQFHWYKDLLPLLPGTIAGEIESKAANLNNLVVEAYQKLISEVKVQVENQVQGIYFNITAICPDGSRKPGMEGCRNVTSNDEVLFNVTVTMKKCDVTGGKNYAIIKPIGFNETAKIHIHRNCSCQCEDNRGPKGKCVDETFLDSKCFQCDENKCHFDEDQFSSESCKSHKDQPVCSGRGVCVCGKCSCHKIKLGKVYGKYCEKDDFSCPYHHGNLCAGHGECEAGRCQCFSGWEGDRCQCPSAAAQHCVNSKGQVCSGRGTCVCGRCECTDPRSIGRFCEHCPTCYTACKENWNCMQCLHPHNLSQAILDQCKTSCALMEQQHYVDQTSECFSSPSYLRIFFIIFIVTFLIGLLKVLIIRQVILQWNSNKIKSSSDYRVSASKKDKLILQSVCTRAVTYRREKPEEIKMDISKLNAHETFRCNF
T1 sequence (P06756 31-889 limits assumed): as the sequence (P06756 31-889 limits assumed) above
T1 sequence (P06756 891-1048 limits assumed): as the sequence (P06756 891-1048 limits assumed) above
T1 sequence (P18564 22-788 limits assumed): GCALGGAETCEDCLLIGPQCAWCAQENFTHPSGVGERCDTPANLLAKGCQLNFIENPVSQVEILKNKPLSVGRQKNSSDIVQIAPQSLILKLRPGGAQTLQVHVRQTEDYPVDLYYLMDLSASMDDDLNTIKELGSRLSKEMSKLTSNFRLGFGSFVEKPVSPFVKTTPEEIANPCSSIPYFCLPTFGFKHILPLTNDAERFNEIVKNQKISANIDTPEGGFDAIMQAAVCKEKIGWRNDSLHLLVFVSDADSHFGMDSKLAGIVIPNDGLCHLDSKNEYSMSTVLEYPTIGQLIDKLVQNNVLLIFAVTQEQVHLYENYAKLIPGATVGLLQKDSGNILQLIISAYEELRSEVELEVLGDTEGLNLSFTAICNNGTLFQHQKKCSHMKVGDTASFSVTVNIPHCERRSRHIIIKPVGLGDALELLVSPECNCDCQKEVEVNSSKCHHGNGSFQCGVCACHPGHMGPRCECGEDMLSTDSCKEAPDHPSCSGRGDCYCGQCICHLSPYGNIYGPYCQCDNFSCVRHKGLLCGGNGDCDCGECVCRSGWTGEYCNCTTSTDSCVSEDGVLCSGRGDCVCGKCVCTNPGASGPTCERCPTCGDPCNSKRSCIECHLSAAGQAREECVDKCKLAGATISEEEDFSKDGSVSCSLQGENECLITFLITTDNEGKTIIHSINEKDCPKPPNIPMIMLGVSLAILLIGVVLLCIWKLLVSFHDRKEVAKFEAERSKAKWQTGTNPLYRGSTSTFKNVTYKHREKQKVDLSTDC
Sequence of Integrin alpha-V/beta-1 (P05556 21-798 limits assumed): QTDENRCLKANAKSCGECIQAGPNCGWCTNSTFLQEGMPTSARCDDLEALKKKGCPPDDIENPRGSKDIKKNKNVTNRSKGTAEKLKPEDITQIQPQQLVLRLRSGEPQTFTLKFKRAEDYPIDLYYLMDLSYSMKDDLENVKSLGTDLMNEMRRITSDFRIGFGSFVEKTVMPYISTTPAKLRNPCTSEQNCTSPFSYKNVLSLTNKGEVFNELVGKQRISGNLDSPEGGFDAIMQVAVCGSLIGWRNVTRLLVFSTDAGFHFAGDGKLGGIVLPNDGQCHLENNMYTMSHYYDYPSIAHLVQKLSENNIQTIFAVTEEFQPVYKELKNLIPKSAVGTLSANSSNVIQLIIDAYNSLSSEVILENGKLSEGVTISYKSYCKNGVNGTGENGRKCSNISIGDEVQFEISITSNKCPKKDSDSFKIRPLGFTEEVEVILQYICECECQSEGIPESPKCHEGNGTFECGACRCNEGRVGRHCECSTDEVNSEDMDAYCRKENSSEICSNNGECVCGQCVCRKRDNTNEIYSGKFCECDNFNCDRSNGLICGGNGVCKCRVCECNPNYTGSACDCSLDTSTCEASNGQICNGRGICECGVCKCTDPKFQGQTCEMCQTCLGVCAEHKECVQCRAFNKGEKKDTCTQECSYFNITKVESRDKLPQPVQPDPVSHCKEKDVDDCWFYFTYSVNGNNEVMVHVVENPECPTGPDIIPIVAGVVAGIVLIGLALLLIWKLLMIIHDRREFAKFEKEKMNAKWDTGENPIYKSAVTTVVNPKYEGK
Sequence of Integrin alpha-V/beta-1 (P06756 31-889 limits assumed): as the sequence (P06756 31-889 limits assumed) above
Sequence of Integrin alpha-V/beta-1 (P06756 891-1048 limits assumed): as the sequence (P06756 891-1048 limits assumed) above

| Compound | IC50 (Integrin alpha-V/beta-1) | IC50 (Integrin alpha-V/beta-6 [1]) | logD [2] | IC50 (Integrin alpha-V/beta-6 [3]) | IC50 (Integrin alpha-V/beta-8) | Ratio IC50 (Homo sapiens [4]) | Ratio IC50 (Homo sapiens [5]) | Vd [6] | half-life [7] | bioavailability [8] | clearance [9] |
| --- | --- | --- | --- | --- | --- | --- | --- | --- | --- | --- | --- |
| O=C(O)CN1CC[C@@H](C(=O)NCCCc2ccc3c(n2)NCCC3)C1 | 4000 nM | 790 nM | -0.6 | – | – | – | – | – | – | – | – |
| CC1(C)CCO[C@H](c2ccccc2[C@@H](C(=O)O)N2CC[C@@H](OCCCCc3ccc4c(n3)NCCC4)C2)C1 | 570 nM | 1.6 nM | 2.3 | 213 nM | 410 nM | – | – | – | – | – | – |
| O=C(O)[C@H](c1cc(F)ccc1[C@@H]1CCCCO1)N1CC[C@@H](OCCCCc2ccc3c(n2)NCCC3)C1 | 87 nM | 1.6 nM | – | 16 nM | 74 nM | > 50 | > 50 | 2.7 L/kg | 1.5 h | 38% | 29 mL/min/kg |
| O=C(O)[C@H](c1cc(F)ccc1[C@@H]1CCCO1)N1CC[C@@H](OCCCCc2ccc3c(n2)NCCC3)C1 | 92 nM | 1.9 nM | 1.5 | 21 nM | 134 nM | > 50 | > 50 | 1.2 L/kg | 1.5 h | 41% | 13 mL/min/kg |
| CC1(C)CC[C@@H](c2ccc(F)cc2[C@@H](C(=O)O)N2CC[C@@H](OCCCCc3ccc4c(n3)NCCC4)C2)OC1 | 690 nM | 0.5 nM | 2.6 | 41 nM | 140 nM | – | – | 2.4 L/kg | 1.2 h | 25% | 30 mL/min/kg |
| O=C(O)[C@H](c1cc(F)ccc1C1CCOCC1)N1CC[C@@H](OCCCCc2ccc3c(n2)NCCC3)C1 | 120 nM | 7.8 nM | 1.3 | 128 nM | 100 nM | – | – | – | – | – | – |
| O=C(O)[C@H](c1ccccc1C1CC1)N1CC[C@@H](OCCCCc2ccc3c(n2)NCCC3)C1 | 96 nM | 4.6 nM | 1.4 | – | 55 nM | – | – | – | – | – | – |
| O=C(NCCCc1ccc2c(n1)NCCC2)C1CCN([C@H](C(=O)O)c2ccccc2)CC1 | 14000 nM | 4100 nM | 0.2 | – | – | – | – | – | – | – | – |
| CC1(C)CC[C@@H](c2ccccc2[C@@H](C(=O)O)N2CC[C@@H](OCCCCc3ccc4c(n3)NCCC4)C2)OC1 | 830 nM | 0.8 nM | 1.5 | 35 nM | 430 nM | 1100 | 560 | 2.6 L/kg | 1.2 h | – | 50 mL/min/kg |
| CC1(C)CCCC(c2ccccc2[C@@H](C(=O)O)N2CC[C@@H](OCCCCc3ccc4c(n3)NCCC4)C2)O1 (some centres not stated) | 72 nM | 4.6 nM | 2.1 | – | 150 nM | – | – | – | – | – | – |
| O=C(O)[C@H](c1ccccc1C1CC1)N1CC[C@@H](Oc2ccc(Cc3ccc4c(n3)NCCC4)cc2)C1 | 27 nM | 0.7 nM | 2.4 | – | 7.7 nM | – | – | – | – | – | – |
| O=C(O)[C@H](c1cc(F)ccc1[C@H]1CCCCO1)N1CC[C@@H](OCCCCc2ccc3c(n2)NCCC3)C1 | 130 nM | 8 nM | 1.7 | – | 130 nM | – | – | – | – | – | – |
| O=C(O)[C@H](c1ccccc1)N1CC[C@@H](OCCCCc2ccc3c(n2)NCCC3)C1 | 3900 nM | 80 nM | 0.7 | – | 1100 nM | – | – | – | – | – | – |
| O=C(NCCCc1ccc2c(n1)NCCC2)[C@@H]1CCN([C@H](C(=O)O)c2ccccc2)C1 | 1900 nM | 37 nM | 0.4 | – | 78 nM | > 50 | – | – | – | – | – |
| O=C(O)[C@H](c1ccccc1C1CC1)N1CC[C@@H](OCCCCCc2ccc3c(n2)NCCC3)C1 | 94 nM | 4.4 nM | 1.8 | – | 17 nM | – | – | – | – | – | – |
| O=C(O)[C@H](c1ccccc1C1CC1)N1C[C@@H](F)[C@@H](OCCCCc2ccc3c(n2)NCCC3)C1 | 130 nM | 8.5 nM | 1.4 | – | 140 nM | – | – | – | – | – | – |
| O=C(O)CN1CC[C@H](C(=O)NCCCc2ccc3c(n2)NCCC3)C1 | 1600 nM | 4300 nM | – | – | – | – | – | – | – | – | – |
| O=C(O)[C@H](c1cc(F)ccc1[C@H]1CCCO1)N1CC[C@@H](OCCCCc2ccc3c(n2)NCCC3)C1 | 193 nM | 12 nM | 1.4 | – | 155 nM | – | – | – | – | – | – |
| O=C(O)[C@H](c1cccc(C2CC2)c1)N1CC[C@@H](OCCCCc2ccc3c(n2)NCCC3)C1 | 1100 nM | 13 nM | 1.7 | – | 180 nM | – | – | – | – | – | – |
| O=C(O)CN1CCC(C(=O)NCCCc2ccc3c(n2)NCCC3)CC1 | 650 nM | 1500 nM | -0.5 | – | 370 nM | – | – | – | – | – | – |
| O=C(O)[C@H](c1cc(F)ccc1[C@@H]1CCOC1)N1CC[C@@H](OCCCCc2ccc3c(n2)NCCC3)C1 | 170 nM | 4.1 nM | 1 | – | 83 nM | – | – | – | – | – | – |
| O=C(NCCCc1ccc2c(n1)NCCC2)[C@@H]1CCN([C@@H](C(=O)O)c2ccccc2)C1 | 9500 nM | 93 nM | – | – | 130 nM | – | – | – | – | – | – |
| O=C(O)[C@H](c1cc(F)ccc1[C@H]1CCOC1)N1CC[C@@H](OCCCCc2ccc3c(n2)NCCC3)C1 | 110 nM | 2.8 nM | 1.1 | 90 nM | 190 nM | – | – | – | – | – | – |
| O=C(NCCCc1ccc2c(n1)NCCC2)C1CCN([C@@H](C(=O)O)c2ccccc2)CC1 | 30000 nM | 16000 nM | – | – | – | – | – | – | – | – | – |
| O=C(O)[C@H](c1ccccc1C1CC1)N1CC[C@@H](OCCCc2ccc3c(n2)NCCC3)C1 | 250 nM | 8.6 nM | 1.2 | – | 140 nM | – | – | – | – | – | – |
| O=C(O)[C@H](c1ccccc1C1CC1)N1CC[C@@H](n2cc(CCc3ccc4c(n3)NCCC4)cn2)C1 | 56 nM | 33 nM | 1.6 | – | 100 nM | – | – | – | – | – | – |
| O=C(O)[C@H](c1ccc(C2CC2)cc1)N1CC[C@@H](OCCCCc2ccc3c(n2)NCCC3)C1 | 1600 nM | 12 nM | 1.7 | – | 300 nM | – | – | – | – | – | – |
| O=C(O)[C@H](c1ccccc1C1CCCOC1)N1CC[C@@H](OCCCCc2ccc3c(n2)NCCC3)C1 (some centres not stated) | 300 nM | 25 nM | 1.2 | – | 180 nM | – | – | – | – | – | – |
| O=C(O)[C@H](c1cc(F)ccc1C1CC1)N1CC[C@@H](OCCCCc2ccc3c(n2)NCCC3)C1 | 92 nM | 4 nM | 1.7 | – | 38 nM | – | – | – | – | – | – |
